Results published in PubChem BioAssay (NCI).
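A five-concentration, 48-hour dose response in 96-well plates underlies each endpoint, interpolated linearly between surrounding concentrations. GI50 = concentration required for 50% inhibition of growth. At the TGI there is no net growth.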

Tests used:
Test in all cases: growth of human tumour cells (NCI), 48 h
SF-295 CNS = system: SF-295 CNS
IGROV1 ovarian = system: IGROV1 ovarian
SF-268 CNS = system: SF-268 CNS
A549 NSCLC = system: A549 NSCLC
NCI/ADR-RES ovarian = system: NCI/ADR-RES ovarian
OVCAR-4 ovarian = system: OVCAR-4 ovarian
NCI-H522 lung = system: NCI-H522 lung
HS 578T breast = system: HS 578T breast
SK-OV-3 ovarian = system: SK-OV-3 ovarian
CAKI-1 renal = system: CAKI-1 renal
DU-145 prostate = system: DU-145 prostate
MDA-MB-435 = system: MDA-MB-435
SF-539 CNS = system: SF-539 CNS
MCF7 breast = system: MCF7 breast
PC-3 prostate = system: PC-3 prostate
HOP-62 NSCLC = system: HOP-62 NSCLC
UACC-62 melanoma = system: UACC-62 melanoma
T-47D breast = system: T-47D breast
MDA-MB-231 breast = system: MDA-MB-231 breast
OVCAR-5 ovarian = system: OVCAR-5 ovarian
SK-MEL-5 melanoma = system: SK-MEL-5 melanoma
SW-620 colon = system: SW-620 colon
RPMI-8226 leukemia = system: RPMI-8226 leukemia
SN12C renal = system: SN12C renal
MOLT-4 leukemia = system: MOLT-4 leukemia
OVCAR-8 ovarian = system: OVCAR-8 ovarian
M14 melanoma = system: M14 melanoma
786-0 renal = system: 786-0 renal
OVCAR-3 ovarian = system: OVCAR-3 ovarian
U251 CNS = system: U251 CNS
HCT-15 colon = system: HCT-15 colon
NCI-H460 lung = system: NCI-H460 lung
COLO 205 colon = system: COLO 205 colon
CCRF-CEM leukemia = system: CCRF-CEM leukemia
TK-10 renal = system: TK-10 renal
SK-MEL-2 melanoma = system: SK-MEL-2 melanoma
MALME-3M melanoma = system: MALME-3M melanoma
RXF 393 renal = system: RXF 393 renal
HT29 colon = system: HT29 colon
HCT-116 colon = system: HCT-116 colon
SK-MEL-28 melanoma = system: SK-MEL-28 melanoma
HL-60(TB) leukemia = system: HL-60(TB) leukemia
A498 renal = system: A498 renal
KM12 colon = system: KM12 colon
BT-549 breast = system: BT-549 breast
LOX IMVI melanoma = system: LOX IMVI melanoma
EKVX NSCLC = system: EKVX NSCLC
SNB-19 CNS = system: SNB-19 CNS
SNB-75 CNS = system: SNB-75 CNS
K-562 leukemia = system: K-562 leukemia
ACHN renal = system: ACHN renal
UACC-257 melanoma = system: UACC-257 melanoma
HOP-92 NSCLC = system: HOP-92 NSCLC
HCC-2998 colon = system: HCC-2998 colon
UO-31 renal = system: UO-31 renal
NCI-H23 lung = system: NCI-H23 lung
NCI-H226 lung = system: NCI-H226 lung

Cc1ccc(NCCN(C)C)c2c(=O)c3ccccc3sc12
GI50 (SF-295 CNS): 1.88 µM | TGI (SF-295 CNS): 4.46 µM | GI50 (IGROV1 ovarian): 1.5 µM | TGI (IGROV1 ovarian): 5.05 µM | GI50 (SF-268 CNS): 1.97 µM | TGI (SF-268 CNS): 4.74 µM | GI50 (A549 NSCLC): 1.35 µM | TGI (A549 NSCLC): 3.4 µM | GI50 (NCI/ADR-RES ovarian): 1.93 µM | TGI (NCI/ADR-RES ovarian): 4.6 µM | GI50 (OVCAR-4 ovarian): 2.67 µM | TGI (OVCAR-4 ovarian): 8.76 µM | GI50 (NCI-H522 lung): 1.89 µM | TGI (NCI-H522 lung): 5.38 µM | GI50 (HS 578T breast): 1.59 µM | TGI (HS 578T breast): 3.76 µM | GI50 (SK-OV-3 ovarian): 1.73 µM | TGI (SK-OV-3 ovarian): 3.92 µM | GI50 (CAKI-1 renal): 2.08 µM | TGI (CAKI-1 renal): 7.56 µM | GI50 (DU-145 prostate): 2.02 µM | TGI (DU-145 prostate): 4.63 µM | GI50 (MDA-MB-435): 1.71 µM | TGI (MDA-MB-435): 3.47 µM | GI50 (SF-539 CNS): 1.59 µM | TGI (SF-539 CNS): 2.97 µM | GI50 (MCF7 breast): 1.47 µM | TGI (MCF7 breast): 2.95 µM | GI50 (PC-3 prostate): 1.97 µM | TGI (PC-3 prostate): 5.13 µM | GI50 (HOP-62 NSCLC): 1.55 µM | TGI (HOP-62 NSCLC): 3.11 µM | GI50 (UACC-62 melanoma): 1.69 µM | TGI (UACC-62 melanoma): 3.29 µM | GI50 (T-47D breast): 1.82 µM | TGI (T-47D breast): 4.96 µM | GI50 (MDA-MB-231 breast): 1.69 µM | TGI (MDA-MB-231 breast): 3.73 µM | GI50 (OVCAR-5 ovarian): 1.76 µM | TGI (OVCAR-5 ovarian): 3.38 µM | GI50 (SK-MEL-5 melanoma): 1.49 µM | TGI (SK-MEL-5 melanoma): 2.83 µM | GI50 (SW-620 colon): 1.46 µM | TGI (SW-620 colon): 3.02 µM | GI50 (RPMI-8226 leukemia): 1.67 µM | TGI (RPMI-8226 leukemia): 4.21 µM | GI50 (SN12C renal): 2.45 µM | TGI (SN12C renal): 9.61 µM | GI50 (MOLT-4 leukemia): 1.13 µM | TGI (MOLT-4 leukemia): 4.33 µM | GI50 (OVCAR-8 ovarian): 3.16 µM | TGI (OVCAR-8 ovarian): 12.4 µM | GI50 (M14 melanoma): 1.59 µM | TGI (M14 melanoma): 3.05 µM | GI50 (786-0 renal): 1.58 µM | TGI (786-0 renal): 3.54 µM | GI50 (OVCAR-3 ovarian): 1.86 µM | TGI (OVCAR-3 ovarian): 3.73 µM | GI50 (U251 CNS): 1.83 µM | TGI (U251 CNS): 3.82 µM | GI50 (HCT-15 colon): 2.21 µM | TGI (HCT-15 colon): 6.53 µM | GI50 (NCI-H460 lung): 1.41 µM | TGI (NCI-H460 lung): 3.01 µM | GI50 (COLO 205 colon): 1.29 µM | TGI (COLO 205 colon): 2.65 µM | GI50 (CCRF-CEM leukemia): 2.12 µM | TGI (CCRF-CEM leukemia): 6.18 µM | GI50 (TK-10 renal): 2.34 µM | TGI (TK-10 renal): 5.45 µM | GI50 (SK-MEL-2 melanoma): 2 µM | TGI (SK-MEL-2 melanoma): 4.31 µM | GI50 (MALME-3M melanoma): 1.66 µM | TGI (MALME-3M melanoma): 3.28 µM | GI50 (RXF 393 renal): 1.96 µM | TGI (RXF 393 renal): 4.59 µM | GI50 (HT29 colon): 1.62 µM | TGI (HT29 colon): 3.77 µM | GI50 (HCT-116 colon): 1.47 µM | TGI (HCT-116 colon): 2.8 µM | GI50 (SK-MEL-28 melanoma): 1.71 µM | TGI (SK-MEL-28 melanoma): 3.11 µM | GI50 (HL-60(TB) leukemia): 1.72 µM | TGI (HL-60(TB) leukemia): 4.15 µM | GI50 (A498 renal): 1.14 µM | TGI (A498 renal): 2.52 µM | GI50 (KM12 colon): 1.66 µM | TGI (KM12 colon): 3.1 µM | GI50 (BT-549 breast): 3.89 µM | TGI (BT-549 breast): 15.5 µM | GI50 (LOX IMVI melanoma): 1.61 µM | TGI (LOX IMVI melanoma): 3.45 µM | GI50 (EKVX NSCLC): 2.96 µM | TGI (EKVX NSCLC): 9.93 µM | GI50 (SNB-19 CNS): 2.24 µM | TGI (SNB-19 CNS): 6.63 µM | GI50 (SNB-75 CNS): 1.49 µM | TGI (SNB-75 CNS): 3.08 µM | GI50 (K-562 leukemia): 1.6 µM | TGI (K-562 leukemia): 3.56 µM | GI50 (ACHN renal): 1.68 µM | TGI (ACHN renal): 3.53 µM | GI50 (UACC-257 melanoma): 1.88 µM | TGI (UACC-257 melanoma): 3.83 µM | GI50 (HOP-92 NSCLC): 1.04 µM | TGI (HOP-92 NSCLC): 4.41 µM | GI50 (HCC-2998 colon): 1.57 µM | TGI (HCC-2998 colon): 2.92 µM | GI50 (UO-31 renal): 1.28 µM | TGI (UO-31 renal): 2.85 µM | GI50 (NCI-H23 lung): 1.97 µM | TGI (NCI-H23 lung): 4.75 µM | GI50 (NCI-H226 lung): 1.83 µM | TGI (NCI-H226 lung): 3.96 µM
